Laboratory results published in patent US20080312301A1, “Substituted N-Benzo[D]Isoxazol-3-Yl-Amine Compounds as Inhibitors of Mglur5, Serotonin (5-Ht) and Noradrenaline Receptors, and Uses Thereof” (Gruenenthal GmbH, priority 2005, published 2008).

Molecular target: T1, mGluR5 receptor (Sus scrofa, UniProt I3LUI7)
T1 construct: 450 μg of protein from brain homogenate are incubated with 5 nM^3[H]-MPEP; from tissue; host or cells: pig brain hemispheres without medulla, cerebellum and pons
Test: Affinity for the mGluR5 receptor: displacement of 3[H]-MPEP binding in pig brain homogenate
Conditions: 10 μM compound, 5 nM 3[H]-MPEP
Procedure: II. Method for Determining the Affinity for the mGluR5 Receptor
In each case 450 μg of protein from brain homogenate are incubated with 5 nM^3[H]-MPEP (Tocris, order No. R1212) (MPEP=2-methyl-6-[…]) and the compounds to be investigated (10 μM in the assay) in buffer (as above) in 250 μl incubation mixtures in 96-well microtiter plates at room temperature for 60 min.
The filter plates were then dried at 55° C. for 60 min.

T1 sequence (I3LUI7 19-1212): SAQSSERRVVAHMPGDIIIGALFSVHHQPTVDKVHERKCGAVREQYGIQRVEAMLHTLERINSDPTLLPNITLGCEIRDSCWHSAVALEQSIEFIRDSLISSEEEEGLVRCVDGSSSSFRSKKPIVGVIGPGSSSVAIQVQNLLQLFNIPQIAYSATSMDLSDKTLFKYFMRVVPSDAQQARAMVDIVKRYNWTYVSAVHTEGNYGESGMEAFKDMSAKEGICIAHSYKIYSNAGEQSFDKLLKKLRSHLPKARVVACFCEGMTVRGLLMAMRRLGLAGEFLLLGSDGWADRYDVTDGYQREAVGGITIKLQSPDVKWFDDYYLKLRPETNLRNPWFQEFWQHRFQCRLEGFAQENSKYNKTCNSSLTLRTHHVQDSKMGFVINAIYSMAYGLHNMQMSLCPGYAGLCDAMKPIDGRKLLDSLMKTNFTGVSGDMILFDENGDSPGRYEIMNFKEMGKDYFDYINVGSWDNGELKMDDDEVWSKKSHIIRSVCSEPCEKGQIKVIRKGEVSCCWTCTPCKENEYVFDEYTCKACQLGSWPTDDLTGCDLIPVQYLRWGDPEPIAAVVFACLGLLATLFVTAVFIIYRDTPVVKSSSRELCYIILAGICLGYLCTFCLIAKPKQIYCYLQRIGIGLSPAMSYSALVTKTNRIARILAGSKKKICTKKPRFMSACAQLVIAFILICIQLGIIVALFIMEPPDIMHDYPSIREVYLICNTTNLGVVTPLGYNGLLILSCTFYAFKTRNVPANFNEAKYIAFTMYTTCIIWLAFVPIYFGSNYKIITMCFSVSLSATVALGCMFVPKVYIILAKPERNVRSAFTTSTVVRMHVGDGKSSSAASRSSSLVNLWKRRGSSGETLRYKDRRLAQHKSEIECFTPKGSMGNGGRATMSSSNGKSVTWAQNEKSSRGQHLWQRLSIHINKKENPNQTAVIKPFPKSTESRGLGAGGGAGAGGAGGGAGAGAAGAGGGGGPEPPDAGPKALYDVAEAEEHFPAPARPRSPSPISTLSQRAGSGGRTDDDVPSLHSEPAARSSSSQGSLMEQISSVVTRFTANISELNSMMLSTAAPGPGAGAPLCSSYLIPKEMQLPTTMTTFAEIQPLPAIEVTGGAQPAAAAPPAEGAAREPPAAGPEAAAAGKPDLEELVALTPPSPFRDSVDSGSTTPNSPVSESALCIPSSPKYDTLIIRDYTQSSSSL

| inhibition at 10 µM [%] | mGluR5 receptor inhibition of the 3[H]-MPEP binding in % (10 μM) [%] | SMILES |
| --- | --- | --- |
| 38.5 |  | CCCC(C)C(=O)Nc1noc2cccc(OC)c12 (stereo not drawn) [Example 161, N-(4-methoxybenzo[d]isoxazol-3-yl)-2-methylpentanamide] |
| 52.4 |  | CC(C)(C)CC(=O)Nc1noc2cccc(Cl)c12 [Example 155, N-(4-chlorobenzo[d]isoxazol-3-yl)-3,3-dimethylbutyramide] |
|  | 55.98 | O=C(Nc1noc2ccccc12)c1csc2ccccc12 [Example 92, benzo[b]thiophene-3-benzo[d]isoxazol-3-ylcarboxamide] |
| 43.5 |  | CCC(C(=O)Nc1noc2ccc(C)cc12)c1ccccc1 (stereo not drawn) [Example 145, N-(5-methylbenzo[d]isoxazol-3-yl)-2-phenylbutyramide] |
| 33.1 |  | Cc1ccc2onc(NC(=O)c3cccnc3Cl)c2c1 [Example 128, 2-chloro-N-(5-methylbenzo[d]isoxazol-3-yl)nicotinamide] |
| 44.6 |  | CC(C)(C)c1ccc(C(=O)Nc2noc3ccc(F)cc23)cc1 [Example 104, 4-tert-butyl-N-(5-fluorobenzo[d]isoxazol-3-yl)benzamide] |
| 47.9 |  | Cc1ccc2onc(NC(=O)c3ccccc3Cl)c2c1 [Example 120, 2-chloro-N-(5-methylbenzo[d]isoxazol-3-yl)benzamide] |
| 54 |  | CCC(C)C(=O)Nc1noc2cccc(OC)c12 (stereo not drawn) [Example 160, N-(4-methoxybenzo[d]isoxazol-3-yl)-2-methylbutyramide] |
| 33.3 |  | O=C(Nc1noc2cc(F)ccc12)c1cc(F)cc(F)c1 [Example 100, 3,5-difluoro-N-(6-fluorobenzo[d]isoxazol-3-yl)benzamide] |
| 43.5 |  | Cc1ccc2onc(NC(=O)c3ccc(C(C)(C)C)cc3)c2c1 [Example 124, 4-tert-butyl-N-(5-methylbenzo[d]isoxazol-3-yl)benzamide] |
| 42.1 |  | CCCc1ccc(C(=O)Nc2noc3ccc(F)cc23)cc1 [Example 107, N-(5-fluorobenzo[d]isoxazol-3-yl)-4-propylbenzamide] |
|  | 42.52 | O=C(Nc1noc2ccc(F)cc12)c1ccc(F)cc1F [Example 131, 2,4-difluoro-N-(5-fluorobenzo[d]isoxazol-3-yl)benzamide] |
| 31.4 |  | O=C(Nc1noc2cccc(F)c12)c1ccccc1 [Example 147, N-(4-fluorobenzo[d]isoxazol-3-yl)benzamide] |
|  | 32.39 | Cc1cc(C(=O)Nc2noc3cccc(OCC(F)(F)F)c23)c(C)o1 [Example 166, 2,5-dimethylfuran-3-[4-(2,2,2-trifluoroethoxy)benzo[d]isoxazol-3-yl]carboxamide] |
| 36.8 |  | CN(C)c1cccc2onc(NC(=O)c3cc(F)cc(C(F)(F)F)c3)c12 [Example 169, N-(4-dimethylaminobenzo[d]isoxazol-3-yl)-3-fluoro-5-trifluoromethylbenzamide] |
| 43.2 |  | Cc1ccc2onc(NC(=O)c3ccc(F)cc3F)c2c1 [Example 127, 2,4-difluoro-N-(5-methylbenzo[d]isoxazol-3-yl)benzamide] |
|  | 36.88 | Cc1cc(C(=O)Nc2noc3ccc(F)cc23)c(C)o1 [Example 132, 2,5-dimethylfuran-3-(5-fluorobenzo[d]isoxazol-3-yl)carboxamide] |
|  | 74.05 | O=C(Nc1noc2cccc(Cl)c12)C12CC3CC(CC(C3)C1)C2 [Example 151, adamantane-1-(4-chlorobenzo[d]isoxazol-3-yl)carboxamide] |
| 63.8 |  | Cc1cccc(C(=O)Nc2noc3cccc(Cl)c23)c1 [Example 153, N-(4-chlorobenzo[d]isoxazol-3-yl)-3-methylbenzamide] |
|  | 33.72 | O=C(Nc1noc2ccc(F)cc12)c1ccc2ccccc2c1 [Example 106, naphthalene-2-(5-fluorobenzo[d]isoxazol-3-yl)carboxamide] |
| 34.6 |  | O=C(Nc1noc2ccc(Br)cc12)c1cccc(F)c1F [Example 133, N-(5-bromobenzo[d]isoxazol-3-yl)-2,3-difluorobenzamide] |
| 51.1 |  | O=C(Nc1noc2ccccc12)c1c(F)ccc(F)c1F [Example 89, N-benzo[d]isoxazol-3-yl-2,3,6-trifluorobenzamide] |
| 35.1 |  | CCCCC(CC)C(=O)Nc1noc2cc(Cl)ccc12 (stereo not drawn) [Example 112, N-(6-chlorobenzo[d]isoxazol-3-yl)-2-ethylhexanamide] |
| 37.5 |  | O=C(Nc1noc2cc(Br)ccc12)c1ccccc1Cl [Example 114, N-(6-bromobenzo[d]isoxazol-3-yl)-2-chlorobenzamide] |
| 35.8 |  | O=C(Nc1noc2cc(Br)ccc12)c1ccc(Cl)c(Cl)c1 [Example 115, N-(6-bromobenzo[d]isoxazol-3-yl)-3,4-dichlorobenzamide] |
| 49.2 |  | CCC(C)C(=O)Nc1noc2cc(Cl)ccc12 (stereo not drawn) [Example 113, N-(6-chlorobenzo[d]isoxazol-3-yl)-2-methylbutyramide] |

| inhibition at 10 µM [%] | mGluR5 receptor inhibition of the 3[H]-MPEP binding in % (10 μM) [%] | SMILES |
| --- | --- | --- |
| 48.8 |  | Cc1ccc2onc(NC(=O)c3ccc(C#N)cc3)c2c1 [Example 144, 4-cyano-N-(5-methylbenzo[d]isoxazol-3-yl)benzamide] |
| 30 |  | O=C(Nc1noc2ccccc12)c1ccc(C(F)(F)F)c(F)c1 [Example 88, N-benzo[d]isoxazol-3-yl-3-fluoro-4-trifluoromethylbenzamide] |
| 37 |  | O=C(Nc1noc2ccccc12)c1c(F)cccc1F [Example 87, N-benzo[d]isoxazol-3-yl-2,6-difluorobenzamide] |
| 31.6 |  | O=C(Nc1noc2cccc(Cl)c12)c1ccccc1 [Example 152, N-(4-chlorobenzo[d]isoxazol-3-yl)benzamide] |
| 43 |  | Cc1ccccc1C(=O)Nc1noc2c(F)cccc12 [Example 99, N-(7-fluorobenzo[d]isoxazol-3-yl)-2-methylbenzamide] |
| 40.6 |  | Cc1ccc2onc(NC(=O)c3ccccc3C)c2c1 [Example 125, 2-methyl-N-(5-methylbenzo[d]isoxazol-3-yl)benzamide] |
| 45.8 |  | O=C(Nc1noc2c(F)cccc12)c1ccccc1 [Example 95, N-(7-fluorobenzo[d]isoxazol-3-yl)benzamide] |
|  | 43.11 | Cc1cc(C(=O)Nc2noc3ccc(Br)cc23)c(C)o1 [Example 134, 2,5-dimethylfuran-3-(5-bromobenzo[d]isoxazol-3-yl)carboxamide] |
| 30.5 |  | O=C(Nc1noc2c(F)cccc12)c1ccc(F)cc1 [Example 96, 4-fluoro-N-(7-fluorobenzo[d]isoxazol-3-yl)benzamide] |
| 50.3 |  | O=C(Nc1noc2ccccc12)c1cccnc1 [Example 90, N-benzo[d]isoxazol-3-ylnicotinamide] |
| 35.4 |  | O=C(Nc1noc2c(F)cccc12)c1ccccc1Cl [Example 93, 2-chloro-N-(7-fluorobenzo[d]isoxazol-3-yl)benzamide] |
|  | 53.18 | O=C(Nc1noc2cccc(F)c12)C12CC3CC(CC(C3)C1)C2 [Example 150, adamantane-1-(4-fluorobenzo[d]isoxazol-3-yl)carboxamide] |
| 36.1 |  | Nc1c(F)c(F)c2c(NC(=O)c3c(F)cccc3F)noc2c1F [Example 176, N-(6-amino-4,5,7-trifluorobenzo[d]isoxazol-3-yl)-2,6-difluorobenzamide] |
| 69 |  | Cc1ccc2onc(NC(=O)c3ccccc3)c2c1 [Example 118, N-(5-methylbenzo[d]isoxazol-3-yl)benzamide] |
|  | 52.11 | O=C(Nc1noc2cc(F)ccc12)C12CC3CC(CC(C3)C1)C2 [Example 102, adamantane-1-(6-fluorobenzo[d]isoxazol-3-yl)carboxamide] |
| 30.8 |  | CC(C)(C)CC(=O)Nc1noc2cc(Br)ccc12 [Example 117, N-(6-bromobenzo[d]isoxazol-3-yl)-3,3-dimethylbutyramide] |
| 36 |  | O=C(Nc1noc2cc(Cl)ccc12)c1ccc(F)cc1C(F)(F)F [Example 110, N-(6-chlorobenzo[d]isoxazol-3-yl)-4-fluoro-2-trifluoromethylbenzamide] |
| 41 |  | Cc1ccc2onc(NC(=O)c3ccccc3F)c2c1 [Example 122, 2-fluoro-N-(5-methylbenzo[d]isoxazol-3-yl)benzamide] |
| 38 |  | CN(C)c1cccc2onc(NC(=O)c3ccc(Cl)c(Cl)c3)c12 [Example 170, 3,4-dichloro-N-(4-dimethylaminobenzo[d]isoxazol-3-yl)benzamide] |
|  | 44.66 | Cc1cccc(C(=O)Nc2noc3ccc(C)cc23)c1 [Example 143, 3-methyl-N-(5-methylbenzo[d]isoxazol-3-yl)benzamide] |
| 37.8 |  | COc1cccc(C(=O)Nc2noc3ccc(Br)cc23)c1 [Example 142, N-(5-bromobenzo[d]isoxazol-3-yl)-3-methoxybenzamide] |
| 40.8 |  | O=C(Nc1noc2ccc(Br)cc12)c1c(F)cccc1F [Example 136, N-(5-bromobenzo[d]isoxazol-3-yl)-2,6-difluorobenzamide] |
| 36.1 |  | COc1cccc2onc(NC(=O)c3ccccc3C(F)(F)F)c12 [Example 158, N-(4-methoxybenzo[d]isoxazol-3-yl)-2-trifluoromethylbenzamide] |
| 79.5 |  | O=C(Nc1noc2cccc(F)c12)c1ccc(Cl)cc1 [Example 148, 4-chloro-N-(4-fluorobenzo[d]isoxazol-3-yl)benzamide] |
|  | 89.70 | Cc1cccc(C(=O)Nc2noc3ccc(C)cc23)c1 [Example 123, 3-methyl-N-(5-methylbenzo[d]isoxazol-3-yl)benzamide] |
